Laboratory results from ChEMBL document CHEMBL1136203, “Liquid-phase synthesis of a pegylated adenosine-oligoarginine conjugate, cell-permeable inhibitor of cAMP-dependent protein kinase” (Bioorg Med Chem Lett, 2003).
Square brackets hold non-standard residues; d marks the D form. Peptide text beside a SMILES is read from it. * marks the point of attachment. ξ: configuration not given here. Adenosine(5'-uronoyl) = Nc1ncnc2c1ncn2[C@@H]1O[C@H](C(=O)*)[C@@H](O)[C@H]1O; Biotin = O=C1N[C@H]2[C@H](CS[C@H]2CCCCC(=O)*)N1; NHCH2CH2OCH2CH2OMe = COCCOCCN*; NH(CH2)6NH2 = NCCCCCCN*; ξK = NCCCCC(N)C(=O)O; Ahx = NCCCCCC(=O)O

Assay: Inhibition of cAMP dependent Protein kinase A (PKA) catalytic subunit from bovine heart
Design: species or system Bos taurus

SMILES | IC50 [nM]
N=C(N)NCCC[C@H](NC(=O)[C@H](CCCNC(=N)N)NC(=O)[C@H](CCCNC(=N)N)NC(=O)[C@H](CCCNC(=N)N)NC(=O)[C@H](CCCNC(=N)N)NC(=O)[C@H](CCCNC(=N)N)NC(=O)CCCCCNC(=O)[C@H]1O[C@@H](n2cnc3c(N)ncnc32)[C@H](O)[C@@H]1O)C(=O)O | 700
COCCOCCNC(=O)C(CCCCN)NC(=O)[C@H](CCCN=C(N)N)NC(=O)[C@H](CCCN=C(N)N)NC(=O)[C@H](CCCN=C(N)N)NC(=O)[C@H](CCCN=C(N)N)NC(=O)CCCCCNC(=O)[C@H]1O[C@@H](n2cnc3c(N)ncnc32)[C@H](O)[C@@H]1O (stereo not given in full) ({Adenosine(5'-uronoyl)-Ahx}-RRRR[ξK]-NHCH2CH2OCH2CH2OMe) | 460
O=S(=O)(NCCNC/C=C/c1ccc(Br)cc1)c1cccc2cnccc12 | 135
COCCOCCNC(=O)C(CCCCNC(=O)CCCC[C@@H]1SC[C@@H]2NC(=O)N[C@@H]21)NC(=O)[C@H](CCCN=C(N)N)NC(=O)[C@H](CCCN=C(N)N)NC(=O)[C@H](CCCN=C(N)N)NC(=O)[C@H](CCCN=C(N)N)NC(=O)CCCCCNC(=O)[C@H]1O[C@@H](n2cnc3c(N)ncnc32)[C@H](O)[C@@H]1O (stereo not given in full) ({Adenosine(5'-uronoyl)-Ahx}-RRRR[ξK](Biotin)-NHCH2CH2OCH2CH2OMe) | 1200
NCCCCCCNC(=O)[C@H](CCCN=C(N)N)NC(=O)[C@H](CCCN=C(N)N)NC(=O)[C@H](CCCN=C(N)N)NC(=O)[C@H](CCCN=C(N)N)NC(=O)CCCCCNC(=O)[C@H]1O[C@@H](n2cnc3c(N)ncnc32)[C@H](O)[C@@H]1O ({Adenosine(5'-uronoyl)-Ahx}-RRRR-{NH(CH2)6NH2}) | 680
